Some test systems named below: HS 578T breast; UACC-62 melanoma; SF-295 CNS; UACC-257 melanoma; NCI-H460 lung; HT29 colon; RPMI-8226 leukemia; NCI-H522 lung.
Holding throughout (assay): DTP human tumour cell line panel, 48 h

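All cell lines were grown in 96-well plates and treated with compound for 48 hours. GI50: concentration for 50% inhibition of growth. TGI marks complete inhibition of growth.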 Some results are limits rather than exact numbers.

`COc1cc2c3c(n(CCCNCCCNCCN)c(=O)c2cc1OC)-c1cc2c(cc1C3=O)OCO2`: the GI50 (usually the concentration giving 50% growth inhibition) is 48700 nM in the test with HS 578T breast; 37100 nM in the test on UACC-62 melanoma; over 100000 nM in the test on SF-295 CNS; over 100000 nM with UACC-257 melanoma; over 100000 nM with NCI-H460 lung; 20900 nM with HT29 colon. In addition, the GI50 is 17200 nM in the test with RPMI-8226 leukemia and 15300 nM in the test on NCI-H522 lung. Besides, the TGI (as a rule, the concentration giving total growth inhibition) in the test with HS 578T breast is over 100 µM; with UACC-62 melanoma it was over 100 µM; in the test with SF-295 CNS, over 100 µM; in the test on UACC-257 melanoma, over 100 µM; in the test on NCI-H460 lung, over 100 µM; in the test with HT29 colon it was 95.2 µM. The TGI is 49 µM with RPMI-8226 leukemia and 85.1 µM in the test on NCI-H522 lung.
Consider `COC1C=COC2(C)Oc3c(C)c(O)c4c(O)c(c(C5SCCS5)c(O)c4c3C2=O)NC(=O)/C(C)=C\C=CC(C)C(O)C(C)C(O)C(C)C(OC(C)=O)C1C` (stereo not drawn), for which the TGI in the test on HS 578T breast came to 40.6 µM; in the test with UACC-62 melanoma, 19.2 µM; in the test with SF-295 CNS, 17.6 µM; in the test on UACC-257 melanoma it was 17.8 µM; in the test on NCI-H460 lung, 18 µM; in the test on HT29 colon, 13 µM. In addition, the TGI in the test with RPMI-8226 leukemia came to 8.58 µM; in the test with NCI-H522 lung, 24.2 µM.
On to `CCCCOc1ccc(/C=N/Nc2cc(C)nc3ccc(Br)cc23)cc1`, for which the GI50 in the test with HS 578T breast was 1990 nM; with UACC-62 melanoma it was 1740 nM; in the test on SF-295 CNS it was 1820 nM; in the test with UACC-257 melanoma it was 1660 nM; in the test with NCI-H460 lung, 2080 nM; with HT29 colon, 1550 nM. Further, the figures for the GI50 with RPMI-8226 leukemia and in the test on NCI-H522 lung were 2030 nM and 1720 nM, respectively. The TGI is 4.71 µM with HS 578T breast; 3.26 µM in the test on UACC-62 melanoma; 3.36 µM with SF-295 CNS; 3.18 µM in the test on UACC-257 melanoma; 4.06 µM with NCI-H460 lung; 2.97 µM in the test with HT29 colon. For the same compound, the TGI was found to be 4.58 µM with RPMI-8226 leukemia and 3.21 µM with NCI-H522 lung.
Consider `O=C(c1ccc([N+](=O)[O-])cc1)C(Br)C(Br)c1ccnc2ccccc12` (stereo not drawn), for which the TGI is over 27.2 µM in the test with HS 578T breast; 24.6 µM with UACC-62 melanoma; 21.1 µM with SF-295 CNS; 14.6 µM in the test with UACC-257 melanoma; 13.8 µM in the test on NCI-H460 lung; 11.7 µM in the test on HT29 colon. Further, the TGI in the test on RPMI-8226 leukemia is 5.91 µM; in the test with NCI-H522 lung it was 6.32 µM.
Turning to `COc1ccc2c(O)c(/C=C3\N=Nc4ncccc43)oc2c1C[C@@H]1CCNC[C@H]1F`, the GI50 in the test with HS 578T breast was 1580 nM; with UACC-62 melanoma it was 1320 nM; in the test on SF-295 CNS it was 723 nM; with UACC-257 melanoma, 2820 nM; with NCI-H460 lung it was 617 nM; in the test on HT29 colon it was 307 nM. Also, the GI50 with RPMI-8226 leukemia was 266 nM; with NCI-H522 lung, 128 nM. For the same compound, the TGI with HS 578T breast was 5.78 µM; in the test with UACC-62 melanoma, 3.79 µM; with SF-295 CNS, 4.03 µM; in the test with UACC-257 melanoma, 9.46 µM; in the test on NCI-H460 lung, 2.05 µM; in the test on HT29 colon, 2.09 µM. The figures for the TGI in the test with RPMI-8226 leukemia and in the test on NCI-H522 lung were 0.984 µM and 1.35 µM, respectively.
With `C#C[C@@]1(O)[C@@H](CO)O[C@@H](n2cc(C(F)(F)F)c3c(N)ncnc32)[C@@H]1O`, the GI50 in the test on HS 578T breast is 1260 nM; with UACC-62 melanoma, 707 nM; in the test on SF-295 CNS, 2180 nM; with UACC-257 melanoma, 600 nM; in the test on NCI-H460 lung, 536 nM; with HT29 colon it was 207 nM. In addition, the values for the GI50 with RPMI-8226 leukemia and in the test on NCI-H522 lung were 886 nM and 345 nM, respectively. In addition, the TGI in the test on HS 578T breast worked out at 6.23 µM; in the test with UACC-62 melanoma it was 2.63 µM; with SF-295 CNS it was 8.09 µM; with NCI-H460 lung, 10.6 µM; with HT29 colon, 8.3 µM; in the test on RPMI-8226 leukemia, 4.56 µM. In addition, the TGI with NCI-H522 lung came out at 1.98 µM.
Consider `COc1ccc(C2C(C#N)=C(N)Oc3c2sc2c(Br)cccc32)cc1` (stereo not drawn), for which the GI50 in the test with HS 578T breast was 3300 nM; in the test with UACC-62 melanoma it was 996 nM; in the test with SF-295 CNS it was 907 nM; in the test on UACC-257 melanoma, 13600 nM; with NCI-H460 lung, 2080 nM; in the test on HT29 colon, 3800 nM. In addition, the results for the GI50 in the test on RPMI-8226 leukemia and in the test on NCI-H522 lung were 2900 nM and 1750 nM, respectively. Also, the TGI was found to be 36.1 µM in the test with HS 578T breast; 15.4 µM with UACC-62 melanoma; 6.54 µM with SF-295 CNS; 32.7 µM with UACC-257 melanoma; 21.9 µM in the test on NCI-H460 lung; 11.2 µM in the test with HT29 colon. Moreover, the figures for the TGI in the test with RPMI-8226 leukemia and with NCI-H522 lung were 12.5 µM and 6.28 µM, respectively.
As to `COc1ccc(-c2cc(-c3ccc(Cl)cc3)nc(NCCCCNc3ccnc4cc(Cl)ccc34)n2)cc1`, the GI50 in the test with HS 578T breast is 14600 nM; in the test with UACC-62 melanoma, 17800 nM; in the test with SF-295 CNS, 8020 nM; with UACC-257 melanoma, 1960 nM; in the test on NCI-H460 lung it was 2040 nM; in the test on HT29 colon it was 1680 nM. Further, the GI50 in the test with RPMI-8226 leukemia is 2140 nM; with NCI-H522 lung it was 3650 nM. The TGI is 38.9 µM in the test with HS 578T breast; 35.8 µM with UACC-62 melanoma; 24.2 µM with SF-295 CNS; 4.22 µM in the test with UACC-257 melanoma; 4.35 µM with NCI-H460 lung; 3.57 µM in the test with HT29 colon. The figures for the TGI with RPMI-8226 leukemia and in the test on NCI-H522 lung were 5.66 µM and 14.6 µM, respectively.
Take `Oc1[nH]c2ccccc2c1/C=c1/ccc2c(c1)N=C(c1ccc(C(F)(F)F)cc1)N=2`: the GI50 was 3090 nM with HS 578T breast; 2620 nM with UACC-62 melanoma; 2700 nM with SF-295 CNS; 7400 nM with UACC-257 melanoma; 2130 nM with NCI-H460 lung; 1610 nM with HT29 colon. Also, the results for the GI50 in the test on RPMI-8226 leukemia and with NCI-H522 lung were 1340 nM and 1970 nM, respectively. Also, the TGI with HS 578T breast is 12.7 µM; in the test on UACC-62 melanoma, 15.8 µM; with SF-295 CNS, 12.2 µM; with UACC-257 melanoma, 21.5 µM; in the test with NCI-H460 lung, 6.12 µM; with HT29 colon, 11.3 µM. The TGI in the test with RPMI-8226 leukemia is 4 µM; in the test with NCI-H522 lung, 13.5 µM.
On to `Cc1ccc(Cl)c(NS(=O)(=O)c2ccc(-c3cnc(C4CC4)o3)cc2)c1`, for which the GI50 is 72.9 nM in the test with HS 578T breast; 47.2 nM in the test with UACC-62 melanoma; 37.7 nM with SF-295 CNS; 8160 nM with UACC-257 melanoma; 102 nM with NCI-H460 lung; 51.7 nM with HT29 colon. The GI50 is 318 nM in the test on RPMI-8226 leukemia and 56.6 nM in the test with NCI-H522 lung. The TGI with HS 578T breast was over 69.6 µM; in the test with UACC-62 melanoma, 34.8 µM; with SF-295 CNS, 0.182 µM; in the test with UACC-257 melanoma, 50.7 µM; in the test on NCI-H460 lung, 20.4 µM; in the test on HT29 colon, 16.2 µM. For the same compound, the TGI is 24.8 µM with RPMI-8226 leukemia and 20.3 µM in the test with NCI-H522 lung.

(Values after PubChem BioAssay (NCI).)
